Laboratory results published in patent publication US6737383B1, “Herbicidal oxadiazolidines” (priority 1999, dated 2004).

Columns and labels:
[1] = system: bedstraw; experiment: Test B pre/postemergence bedstraw; assay type: in vivo, Galium aparine; conditions: Preemergence
Procedure, shortened: (§1)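 Herbicidal effect was estimated by eye on a ten-point control scale after plants spent twelve to sixteen days in a greenhouse following soil or foliar treatment. Foliar sprays targeted plants at one to four leaves; all doses were formulated in a non-phytotoxic solvent with surfactant.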

[2] = system: blackgrass; experiment: Test B pre/postemergence blackgrass; assay type: in vivo, Alopecurus myosuroides
Procedure, shortened: as §1

[3] = system: surinam grass; experiment: Test B pre/postemergence surinam grass; assay type: in vivo, Brachiaria decumbens
Procedure, shortened: as §1

[4] = system: cocklebur; experiment: Test B pre/postemergence cocklebur; assay type: in vivo, Xanthium strumarium
Procedure, shortened: as §1

[5] = system: corn; experiment: Test B pre/postemergence corn; assay type: in vivo, Zea mays
Procedure, shortened: as §1

[6] = system: crabgrass; experiment: Test B pre/postemergence crabgrass; assay type: in vivo, Digitaria sanguinalis
Procedure, shortened: as §1

[7] = system: pigweed; experiment: Test B pre/postemergence pigweed; assay type: in vivo, Amaranthus retroflexus
Procedure, shortened: as §1

[8] = system: rape; experiment: Test B pre/postemergence rape; assay type: in vivo, Brassica napus
Procedure, shortened: as §1

[9] = system: soybean; experiment: Test B pre/postemergence soybean; assay type: in vivo, Glycine max
Procedure, shortened: as §1

[10] = system: sugar beet; experiment: Test B pre/postemergence sugar beet; assay type: in vivo, Beta vulgaris
Procedure, shortened: as §1

[11] = system: velvetleaf; experiment: Test B pre/postemergence velvetleaf; assay type: in vivo, Abutilon theophrasti
Procedure, shortened: as §1

[12] = system: wheat; experiment: Test B pre/postemergence wheat; assay type: in vivo, Triticum aestivum
Procedure, shortened: as §1

[13] = system: wild oat; experiment: Test B pre/postemergence wild oat; assay type: in vivo, Avena fatua
Procedure, shortened: as §1

[14] = system: purple nutsedge; experiment: Test B pre/postemergence purple nutsedge; assay type: in vivo, Cyperus rotundus
Procedure, shortened: as §1

[15] = system: smallflower flatsedge; experiment: Test B flood test smallflower flatsedge; assay type: in vivo, Cyperus difformis
Procedure, shortened: (§2)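 Flood test on plants grown to the 2-leaf stage; treated plants kept in greenhouse twelve to sixteen days, then visually rated against controls on a 0 (no effect) to 10 (complete control) scale.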

[16] = system: bamyardgrass; experiment: Test B flood test barnyardgrass; assay type: in vivo, Echinochloa crus-galli
Procedure, shortened: as §2

[17] = Postemergence, Rate 31 g/ha, visual rating, scale 0 to 10 (0 no effect, 10 complete control)
[18] = Postemergence, Rate 125 g/ha, scale 0 to 10, 0 is no effect, 10 is complete control
[19] = Postemergence, Rate 250 g/ha, scale 0 to 10
[20] = Preemergence, Rate 31 g/ha, visual rating, scale 0 to 10 (0 no effect, 10 complete control)
[21] = Preemergence, Rate 62 g/ha, scale of 0 to 10 where 0 is no effect and 10 is complete control
[22] = Preemergence, Rate 125 g/ha, scale 0 to 10, 0 is no effect, 10 is complete control
[23] = Preemergence, Rate 250 g/ha, scale 0 to 10, 0 is no effect, 10 is complete control
[24] = Rate 62 g/ha, Postemergence, scale 0 to 10, 0 no effect, 10 complete control
[25] = Rate 31 g/ha, Pre-emergence section (flood test species), scale 0 to 10
[26] = Rate 62 g/ha, flood test species, Pre-emergence, visual evaluation after twelve to sixteen days
[27] = Rate 125 g/ha, under heading Pre-emergence, flood test species, visual evaluation after twelve to sixteen days
[28] = Rate 250 g/ha, Pre-emergence (flood test species), scale 0 to 10, 0 is no effect, 10 is complete control

CC(C)N(C(=O)n1oc(=O)n(CC[N+](=O)[O-])c1=O)c1ccc(Cl)cc1 [Compound 483]
0: Bedstraw plant response rating ([1]; Rate 31 g/ha, visual rating, scale 0 to 10 (0 no effect, 10 complete control)) | Plant response rating, Bedstraw ([1]; Rate 62 g/ha, scale of 0 to 10 where 0 is no effect and 10 is complete control) | Bedstraw plant response rating ([1]; Rate 125 g/ha, scale 0 to 10, 0 is no effect, 10 is complete control) | Bedstraw plant response rating ([1]; Rate 250 g/ha, scale 0 to 10, 0 is no effect, 10 is complete control) | Blackgrass plant response rating [2, 17] | Blackgrass plant response rating [2, 18] | Blackgrass plant response rating [2, 19] | Blackgrass plant response rating [2, 20] | Plant response rating, Blackgrass [2, 21] | Blackgrass plant response rating [2, 22] | Blackgrass plant response rating [2, 23] | Blackgrass plant response rating [2, 24] | B. signalgrass plant response rating [3, 17] | B. signalgrass plant response rating [3, 18] | B. signalgrass plant response rating ([3]; Postemergence, Rate 250 g/ha, scale 0 to 10, 0 no effect, 10 complete control) | B. signalgrass plant response rating [3, 20] | Plant response rating, B. signalgrass [3, 21] | B. signalgrass plant response rating [3, 22] | B. signalgrass plant response rating [3, 23] | B. signalgrass plant response rating [3, 24] | Cocklebur plant response rating [4, 17] | Cocklebur plant response rating [4, 18] | Cocklebur plant response rating [4, 19] | Cocklebur plant response rating [4, 20] | Plant response rating, Cocklebur [4, 21] | Cocklebur plant response rating [4, 22] | Cocklebur plant response rating [4, 23] | Cocklebur plant response rating [4, 24] | Corn plant response rating [5, 17] | Corn plant response rating [5, 18] | Corn plant response rating [5, 19] | Corn plant response rating [5, 20] | Plant response rating, Corn [5, 21] | Corn plant response rating [5, 22] | Corn plant response rating [5, 23] | Corn plant response rating [5, 24] | Crabgrass plant response rating [6, 17] | Crabgrass plant response rating [6, 18] | Crabgrass plant response rating [6, 19] | Crabgrass plant response rating [6, 20] | Plant response rating, Crabgrass [6, 21] | Crabgrass plant response rating [6, 22] | Crabgrass plant response rating [6, 23] | Crabgrass plant response rating [6, 24] | Redroot pigweed plant response rating [7, 17] | Redroot pigweed plant response rating [7, 18] | Redroot pigweed plant response rating [7, 19] | Plant response rating, Redroot pigweed [7, 21] | Redroot pigweed plant response rating [7, 22] | Redroot pigweed plant response rating [7, 23] | Redroot pigweed plant response rating [7, 24] | Rape plant response rating [8, 17] | Rape plant response rating [8, 18] | Rape plant response rating [8, 19] | Plant response rating, Rape [8, 21] | Rape plant response rating [8, 22] | Rape plant response rating [8, 23] | Rape plant response rating [8, 24] | Soybean plant response rating [9, 17] | Soybean plant response rating [9, 18] | Soybean plant response rating [9, 19] | Plant response rating, Soybean [9, 21] | Soybean plant response rating [9, 22] | Soybean plant response rating [9, 23] | Soybean plant response rating [9, 24] | Sugarbeets plant response rating [10, 17] | Sugarbeets plant response rating [10, 18] | Sugarbeets plant response rating [10, 19] | Plant response rating, Sugarbeets [10, 21] | Sugarbeets plant response rating [10, 22] | Sugarbeets plant response rating [10, 23] | Sugarbeets plant response rating [10, 24] | Velvetleaf plant response rating [11, 17] | Velvetleaf plant response rating [11, 18] | Velvetleaf plant response rating [11, 19] | Plant response rating, Velvetleaf [11, 21] | Velvetleaf plant response rating [11, 22] | Velvetleaf plant response rating [11, 23] | Velvetleaf plant response rating [11, 24] | Wheat plant response rating [12, 17] | Wheat plant response rating [12, 18] | Wheat plant response rating [12, 19] | Plant response rating, Wheat [12, 21] | Wheat plant response rating [12, 22] | Wheat plant response rating [12, 23] | Wheat plant response rating [12, 24] | Wild oats plant response rating [13, 17] | Wild oats plant response rating [13, 18] | Wild oats plant response rating [13, 19] | Plant response rating, Wild oats [13, 21] | Wild oats plant response rating [13, 22] | Wild oats plant response rating [13, 23] | Wild oats plant response rating [13, 24] | Nutsedge plant response rating [14, 17] | Nutsedge plant response rating [14, 18] | Nutsedge plant response rating [14, 19] | Plant response rating, Nutsedge [14, 21] | Nutsedge plant response rating [14, 22] | Nutsedge plant response rating [14, 23] | Nutsedge plant response rating [14, 24] | S. Flatsedge plant response rating [15, 25] | Plant response rating, S. Flatsedge (0 to 10 scale, 0 is no effect, 10 is complete control) [15, 26] | S. Flatsedge plant response rating (0 to 10 scale, 0 is no effect, 10 is complete control) [15, 27] | S. Flatsedge plant response rating [15, 28] | Barnyardgrass plant response rating [16, 25] | Plant response rating, Barnyardgrass (0 to 10 scale, 0 is no effect, 10 is complete control) [16, 26] | Barnyardgrass plant response rating (0 to 10 scale, 0 is no effect, 10 is complete control) [16, 27] | Barnyardgrass plant response rating [16, 28]
